Literature values as cited in patent publication US9669048B2, “Stable pharmaceutical composition of 5-aza-2′-deoxycitidine” (Fresenius Kabi Oncology Limited, priority 2012, dated 2017).

Settings: reconstituted/diluted solution

## Nc1ncn([C@H]2CC(O)[C@@H](CO)O2)c(=O)n1 (stereo partly shown) [Decitabine, 5-aza-2′-deoxycitidine]
  Stability in aqueous media: highly unstable
